Experimental findings from PubChem BioAssay (NCI) are described below.

Among the test systems are UACC-62 melanoma; SN12C renal; UO-31 renal; OVCAR-3 ovarian; MCF7 breast; OVCAR-5 ovarian; HCT-116 colon; COLO 205 colon; SK-MEL-5 melanoma; HL-60(TB) leukemia.
Common to all, as to assay: NCI anticancer screen, dose series, 48 h

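Compound exposure: 48 hours, 5 concentrations, 96-well plates. GI50 = concentration required for 50% inhibition of growth. TGI denotes the concentration required for complete inhibition of growth.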

With `O=C(c1ccccc1)C1C(C(=O)c2ccccc2)C(c2ccccc2)N(c2ccccc2)C1c1ccccc1` (stereo not given), the TGI in the experiment on UACC-62 melanoma, with SN12C renal, in the experiment on UO-31 renal, in the experiment on OVCAR-3 ovarian, in the experiment with MCF7 breast and with OVCAR-5 ovarian was above 100 µM in each case. Moreover, the TGI in the experiment with HCT-116 colon, in the experiment on COLO 205 colon, with SK-MEL-5 melanoma and in the experiment on HL-60(TB) leukemia was above 100 µM each time.

For `CN(C)CCNc1nc2ccccc2c2c(=O)c3ccccc3sc12`, the GI50 was 1.73 µM in the experiment on UACC-62 melanoma; 2.13 µM in the experiment on SN12C renal; 1.08 µM in the experiment with UO-31 renal; 2.06 µM with OVCAR-3 ovarian; 1.37 µM in the experiment with MCF7 breast; 2.25 µM with OVCAR-5 ovarian. Besides, the GI50 was 1.41 µM in the experiment on HCT-116 colon, 1.44 µM with COLO 205 colon, 1.58 µM in the experiment with SK-MEL-5 melanoma and 1.82 µM in the experiment on HL-60(TB) leukemia. For the same compound, the TGI came out at 3.68 µM in the experiment on UACC-62 melanoma; 8.85 µM with SN12C renal; 3.37 µM in the experiment on UO-31 renal; 5.46 µM in the experiment on OVCAR-3 ovarian; 3.05 µM in the experiment with MCF7 breast; 5.14 µM in the experiment on OVCAR-5 ovarian. Also, the TGI turned out to be 2.79 µM in the experiment with HCT-116 colon, 3.08 µM in the experiment on COLO 205 colon, 3 µM with SK-MEL-5 melanoma and 4.21 µM in the experiment on HL-60(TB) leukemia.

With `Cc1ccc2c(c1)C(=O)c1c-2n(CCCN=[N+]=[N-])c(=O)c2cc([N+](=O)[O-])ccc12`, the GI50 in the experiment on UACC-62 melanoma is 30.3 µM; with SN12C renal, 59.4 µM; with UO-31 renal it was 69 µM; in the experiment on OVCAR-3 ovarian, above 100 µM; with MCF7 breast it was 50.1 µM; in the experiment with OVCAR-5 ovarian, above 100 µM. Further, the GI50 in the experiment with HCT-116 colon was 20.5 µM; in the experiment with COLO 205 colon, above 100 µM; with SK-MEL-5 melanoma it was 97.6 µM; in the experiment on HL-60(TB) leukemia, 22 µM. Also, the TGI in the experiment with UACC-62 melanoma, with SN12C renal, in the experiment with UO-31 renal, in the experiment on OVCAR-3 ovarian, in the experiment on MCF7 breast and in the experiment on OVCAR-5 ovarian was above 100 µM in each case. The TGI in the experiment on HCT-116 colon, in the experiment on COLO 205 colon, with SK-MEL-5 melanoma and with HL-60(TB) leukemia was above 100 µM in each case.

In the case of `C[N+](C)([O-])CCCNc1ccnc2cccc([N+](=O)[O-])c12`, the TGI with UACC-62 melanoma is above 100 µM; in the experiment with SN12C renal it was above 100 µM; in the experiment on UO-31 renal, above 100 µM; in the experiment on OVCAR-3 ovarian it was 44.9 µM; in the experiment on MCF7 breast, above 100 µM; in the experiment on OVCAR-5 ovarian, above 100 µM. For the same compound, the TGI in the experiment with HCT-116 colon is above 100 µM; in the experiment with COLO 205 colon, 46.4 µM; in the experiment on SK-MEL-5 melanoma, 33.4 µM; in the experiment with HL-60(TB) leukemia it was 54.1 µM.

On to `O=C(Nc1cccc(C(F)(F)F)c1)c1cc(Br)cc(Br)c1O`, for which the TGI was above 10 µM in the experiment with UACC-62 melanoma; above 10 µM with SN12C renal; 8.51 µM in the experiment on UO-31 renal; 6.14 µM with OVCAR-3 ovarian; above 10 µM with MCF7 breast; above 10 µM in the experiment with OVCAR-5 ovarian. The TGI in the experiment with HCT-116 colon is 5.44 µM; in the experiment with COLO 205 colon it was 9.71 µM; in the experiment with SK-MEL-5 melanoma it was 3.58 µM; in the experiment on HL-60(TB) leukemia, 5 µM.

For the compound `CC[C@H](NC(=O)[C@H](CS(=O)(=O)CC1CC1)N[C@@H](c1ccc(F)cc1)C(F)(F)F)C(=O)C(=O)NC1CC1`, the GI50 is above 100 µM with UACC-62 melanoma; above 100 µM with SN12C renal; above 100 µM in the experiment with UO-31 renal; above 100 µM with OVCAR-3 ovarian; 86.8 µM with MCF7 breast; above 100 µM with OVCAR-5 ovarian. The GI50 in the experiment on HCT-116 colon, with COLO 205 colon, in the experiment on SK-MEL-5 melanoma and in the experiment on HL-60(TB) leukemia was above 100 µM in each case. The TGI in the experiment with UACC-62 melanoma, in the experiment with SN12C renal, in the experiment on UO-31 renal, in the experiment with OVCAR-3 ovarian, with MCF7 breast and in the experiment on OVCAR-5 ovarian was above 100 µM each time. Also, the TGI with HCT-116 colon, in the experiment with COLO 205 colon, in the experiment with SK-MEL-5 melanoma and with HL-60(TB) leukemia was above 100 µM each time.

As to `CC(C)(C)C(=O)OCc1nc2cc3c(cc2c(=O)[nH]1)CCC3=O`, the GI50 in the experiment on UACC-62 melanoma, with SN12C renal, in the experiment with UO-31 renal, in the experiment with OVCAR-3 ovarian, in the experiment with MCF7 breast and in the experiment with OVCAR-5 ovarian was above 100 µM in each case. For the same compound, the GI50 with HCT-116 colon, with COLO 205 colon, in the experiment with SK-MEL-5 melanoma and with HL-60(TB) leukemia was above 100 µM in each case. Moreover, the TGI in the experiment on UACC-62 melanoma, in the experiment on SN12C renal, in the experiment with UO-31 renal, in the experiment on OVCAR-3 ovarian, in the experiment with MCF7 breast and in the experiment with OVCAR-5 ovarian was above 100 µM throughout. Further, the TGI with HCT-116 colon, in the experiment on COLO 205 colon, in the experiment with SK-MEL-5 melanoma and in the experiment on HL-60(TB) leukemia was above 100 µM each time.

With `COc1cc2c(cc1OC)-c1ncc3cc4c(cc3c1C2)OCO4`, the GI50 in the experiment on UACC-62 melanoma is above 100 µM; in the experiment with SN12C renal, above 100 µM; with UO-31 renal it was 23.1 µM; in the experiment with OVCAR-3 ovarian, 61.2 µM; in the experiment on MCF7 breast it was 12.4 µM; in the experiment with OVCAR-5 ovarian, 39.6 µM. The GI50 was 11.1 µM in the experiment on HCT-116 colon, 61.1 µM with COLO 205 colon, 7.65 µM in the experiment with SK-MEL-5 melanoma and 10.3 µM in the experiment on HL-60(TB) leukemia. For the same compound, the TGI with UACC-62 melanoma is above 100 µM; with SN12C renal, above 100 µM; in the experiment on UO-31 renal, 63.7 µM; in the experiment on OVCAR-3 ovarian, above 100 µM; in the experiment with MCF7 breast, 30.6 µM; in the experiment with OVCAR-5 ovarian it was 97 µM. Besides, the TGI is 23 µM in the experiment on HCT-116 colon, above 100 µM in the experiment with COLO 205 colon, above 100 µM in the experiment with SK-MEL-5 melanoma and 22 µM with HL-60(TB) leukemia.
